This experiment relates to P. falciparum PanK. Briefly: [14C]pantothenate phosphorylation assay with P. falciparum lysate. The experiment is classed as biochemical, Plasmodium falciparum. Conditions: 100 µM pantothenamide, 0.2 µM [14C]pantothenate, 10 min. The procedure: To assess the effect of the pantothenamides on pantothenate phosphorylation by P. falciparum PanK, the phosphorylation of [^14C]pantothenate by P. falciparum lysates was measured in the presence and absence of a single concentration of each pantothenamide. P. falciparum lysate was prepared from trophozoite stage parasites “isolated” from their host erythrocyte by treatment with 0.05% (w/v) saponin (essentially as described by Saliba et al.), and washed (five times) in HEPES-buffered saline (125 mM NaCl, 5 mM KCl, 20 mM D-glucose, 25 mM HEPES, 1 mM MgCl2, pH 7.1). Lysates were prepared as described by van Schalkwyk et al., except that 10 mM potassium phosphate, pH 7.4 (rather than 10 mM Tris, pH 7.4), was used to lyse the cells. Aliquots of lysate were stored at −20°C. The concentration of cell lysates was determined from cell counts made using an improved Neubauer hemocytometer.
[^14C]Pantothenate phosphorylation was assayed using the Somogyi reagent essentially as described by Saliba et al., except that pantothenate phosphorylation was terminated by heat denaturation (rather than acid denaturation) of the protein in reaction aliquots. Briefly, P. falciparum lysate was added to solutions (at 37°C) of 50 mM Tris, 5 mM ATP, 5 mM MgCl2, at pH 7.4, containing [^14C]pantothenate (at a final concentration of 0.01 µCi/mL, or 0.2 µM), and a pantothenamide (at a final concentration of 100 µM) or an equivalent volume of solvent. Typically, lysate prepared from 5.4–6.5×10^7 parasites was present in each mL of reaction solution. Zero phosphorylation control reactions were prepared by adding a corresponding volume of 10 mM potassium phosphate instead of parasite lysate. Following a ten minute incubation at 37°C (a period during which pantothenate phosphorylation increased linearly with time in the absence of inhibitors) 200 µL aliquots of the [^14C]pantothenate phosphorylation reactions were transferred in duplicate to microcentrifuge tubes, and immediately incubated at 95°C for 10 min to terminate phosphorylation. Terminated reaction samples were centrifuged at 15 800×g for 10 min to pellet the denatured protein, before two aliquots of each supernatant (typically 80 µL) were transferred to new microcentrifuge tubes. To one aliquot, 500 µL Somogyi reagent was added, and to the other, 500 µL water was added. The samples were processed for determination of phosphorylated [^14C]pantothenate as described previously.

Regarding `CC(C)CNC(=O)CCNC(=O)[C@H](O)C(C)(C)CO` [Compound 12], the “Inhibition of pantothenate phosphorylation at 100 μM” value is reported as 95 ± 5%.
